Measured values taken from patent publication US5466675A, “Immunological activity of rhamnolipids” (priority 1992, dated 1995).

What was measured:
[1] = test system: vesicular stomatitis virus; format: cell-based; conditions: concentrations ≤100 ug/ml
citrate bovine blood = assay: hemolytic activity; format: cell-based
Method: Hemolytic activity of rhamnolipid (II) could be seen after sedimentation of erythrocytes, when hemoglobin colored the solution. If there was no hemolytic activity, erythrocytes would have precipitated without coloring the solution. For test purposes 1 ml of citrate bovine blood was added to 49 ml of isotonic solution.
Series of test samples were prepared in concentrations ranging from 1.0 mg/ml to 0.01 mg/ml. 1 ml of diluted citric bovine blood was added to 1 ml of diluted test sample. The test tube was gently mixed and left for 0.25 h, 1 h and 24 h, respectively. The lowest dose of rhamnolipid II that caused hemolysis in 15 min. was 0.35 mg/ml; in 1 h was 0.25 mg/ml and in 24 h was 0.125 mg/ml.

in vitro = conditions: monkey, vero cells
[2] = test system: A431 human epidermal cells; conditions: in particular in the presence of PMA
elastase = assay: enzyme inhibition, elastase; format: biochemical
Method: Rhamnolipid (II) was tested in vitro against a wide array of enzymes.
All enzyme assays were done spectrophotometrically by computer linked automatic microplate reader (Labsystem Multiskan) and Diode Array spectrophotometer (Perkin Elmer).

[3] = test system: T-cells isolated from mouse thymus; assay: T-lymphocyte proliferation; format: cell-based
Method: Procedure: T-cells were isolated from mouse thymus using conventional procedures, and suspended in DMEM. 5×10^6 cells/ml were incubated overnight at 37° C. to assess stimulation (positive score, related to 3 ug/ml Concanavalin A) or suppression (negative score, related to blank control) of cell proliferation. Test substance was evaluated under these conditions at 10, 1, 0.1, 0.01, 0,001 uM. After overnight incubation, 2 uCi [^3 H] thymidine was added to each well. Cells were harvested after an additional 48 hour incubation, and thymidine incorporation assessed by liquid scintillation counting.

Lichen ruber planus = conditions: 1% rhamnolipid ointment; Belgium patent No. 1,005,704; cited from earlier work
mice C57B1/6 [4] = assay: range-finding study phase (five doses per day)
mice C57B1/6 [5] = assay: range-finding study phase (single intravenous dose)
[6] = as above; conditions: mouse, in vivo, iv
[7] = test system: oxazolone-induced delayed type hypersensitivity; assay: immunostimulation (cellular): oxazolone-induced delayed type hypersensitivity; format: in vivo, mouse; conditions: for Swelling (R -L) / ear thickness, Left Ear (No Oxa.) / ear thickness, Right Ear (24 hrs Oxa.): X ± SEM
Method: The test substance was administered i.p to groups of 5 mice, 1 hour before application (sensitization) of oxazolone (0.1 ml of 5% solution) to the pre-shaven abdominal surface. Seven days later, 25 μl of a 2% solution of oxazolone was applied (challenge) to the right ear, with vehicle being applied to the left ear. After 24 hours, each mouse was sacrificed and ear thickness measured with a Dyer Model micrometer gauge. Greater than 30 percent enhancement is considered immunostimulant activity.

Escherichia coli = assay: minimum inhibitory concentration, Escherichia coli; format: cell-based; conditions: in tested medium
Excerpt: The Minimum inhibitory concentration (MIC) of Rhamnolipid II for Candida albicans, Escherichia coli, Staphylococcus aureus and Pseudomonas aeruginosa was >0.5% in tested medium.

Psoriasis = assay: clinical treatment of psoriasis; format: in vivo, human
Method: (§1) 17 patients, 11 men and 6 women, were treated with rhamnolipid (II). Among these, 12 patients were suffering from Psoriasis, 2 from Neurodermitis, 1 from Lichen ruber planus, 1 from Serborhoic dermatitis and one from Dermatitis circumscripta unilocularis eczematoides.
All patients were treated by application of a cream containing rhamnolipid II over selected psoriatic localities, 2 times a day for 21 days.
The remaining psoriatic localities on the body were treated with local corticosteroid.
The treatment and the follow-up of the patients was a "double blind" experiment.
The therapeutic efficacy was monitored by PASI-index.
After observing positive results with the first six psoriatic patients, who were treated and monitored until the end of the year, rhamnolipid was applied on larger psoriatic surfaces (up to a half of the patient's body where psoriatic lesions existed). Also, occlusions were used (up to 48 hours) and the duration and usage of occlusions was prolonged up to 35 days.
Patients were seen 3, 6 and 9 months after treatment and they were instructed not to apply any other local preparations at the same localities where rhamnolipic II was applied.

semliki forest virus = assay: effect on viruses, semliki forest; format: cell-based; conditions: concentrations ≤100 ug/ml
Method: Tests were performed according to D. A. Vanden Berghe et al., Inst. Pasteur 84,101 (1986). Rhamnolipid (II) was toxic for VERO cells in concentrations ≥200 ug/ml, and cytotoxic on MT4 cells in concentrations >169.40 ug/ml.

seborhoic dermatitis = assay: clinical treatment of seborhoic dermatitis; format: in vivo, human; conditions: one patient
Method: as §1

[8] = five doses per day, intraperitoneal
[9] = fourth day after application, IV

Compound: CCCCCCCC(CC(=O)O)OC(=O)CC(CCCCCCC)O[C@@H]1O[C@@H](C)[C@H](O)[C@@H](O)[C@H]1O[C@@H]1O[C@@H](C)[C@H](O)[C@@H](O)[C@H]1O (stereo partly drawn) [Rhamnolipid (II), (alpha-L-rhamnopyranosyl-(1,2)alpha-L-rhamnopyranosyl)-3-hydroxydecanoyl-3-hydroxydecanoic acid]
- antiviral activity [1]: no activity
- lowest dose that caused hemolysis (citrate bovine blood; 15 min): 0.35 mg/mL
- lowest dose that caused hemolysis (citrate bovine blood; 1 h): 0.25 mg/mL
- lowest dose that caused hemolysis (citrate bovine blood; 24 h): 0.125 mg/mL
- amount that led to hemolytic activity (citrate bovine blood; diluted in 2 ml isotonic solution of diluted citric bovine blood, lower did not): 0.25 mg
- MCC (in vitro): ≥ 200 µg/mL
- A431 cell growth [2]: suppressed A431 cell growth
- effect on enzyme (elastase): no effect
- T-cell proliferation ([3]; 10 uM, without Con A): inhibited
- in vitro T cell immunosuppression activity ([3]; 10 uM, without ConA): T cell immunosuppression activity
- activation at 0.001 µM ([3]; Mus musculus, T-cell, 0.001 uM, 0.5% DMSO, read-out: % Stimulation (+)/Suppression (-)): -2%
- activation at 0.01 µM ([3]; Mus musculus, T-cell, 0.01 uM, 0.5% DMSO, read-out: % Stimulation (+)/Suppression (-)): 0%
- activation at 0.1 µM ([3]; Mus musculus, T-cell, 0.1 uM, 0.5% DMSO, read-out: % Stimulation (+)/Suppression (-)): 1%
- activation at 1 µM ([3]; Mus musculus, T-cell, 1 uM, 0.5% DMSO, read-out: % Stimulation (+)/Suppression (-)): -3%
- activation at 10 µM ([3]; Mus musculus, T-cell, 10 uM, 0.5% DMSO, read-out: % Stimulation (+)/Suppression (-)): -24%
- activity in treatment of Lichen rubber planus (Lichen ruber planus): strong activity
- five dose toxicity (mice C57B1/6 [4]; [8]): 5 mg/kg
- lower bracket dose (LBD) (mice C57B1/6 [4]; [8]): 45 mg/kg
- upper bracket dose (UBD) (mice C57B1/6 [4]; [8]): 125 mg/kg
- difference between rhamnolipid (II) and control (mice C57B1/6 [4]; fourth day after application): no statistical differences
- single dose toxicity (mice C57B1/6 [5]; IV application): 7.5 mg/kg
- lymphocytes (mice C57B1/6 [5]; [9]): significant decrease
- neutrophils (mice C57B1/6 [5]; [9]): significant increase
- behavior and appearance of treated mice (mice C57B1/6 [5]; observation period, IV single dose): no changes
- lower bracket dose (LBD) (mice C57B1/6 [5]; single intravenous dose): 67.5 mg/kg
- upper bracket dose (UBD) (mice C57B1/6 [5]; single intravenous dose): 127.5 mg/kg
- LD50 [6]: 105 mg/kg
- Swelling Inc. % ([7]; IP 0.1 × 5 mg/kg): -11%
- Swelling (R -L) ([7]; IP 0.1 × 5 mg/kg): 15.4 +/- 1.7 × 0.01 mm
- ear thickness, Left Ear (No Oxa.) ([7]; IP 0.1 × 5 mg/kg): 19.4 +/- 1.1 × 0.01 mm
- ear thickness, Right Ear (24 hrs Oxa.) ([7]; IP 0.1 × 5 mg/kg): 34.8 +/- 1.8 × 0.01 mm
- Swelling Inc. % ([7]; IP 1 × 5 mg/kg): 9%
- Swelling (R -L) ([7]; IP 1 × 5 mg/kg): 19.0 +/- 2.2 × 0.01 mm
- ear thickness, Left Ear (No Oxa.) ([7]; IP 1 × 5 mg/kg): 20.6 +/- 0.9 × 0.01 mm
- ear thickness, Right Ear (24 hrs Oxa.) ([7]; IP 1 × 5 mg/kg): 39.6 +/- 2.2 × 0.01 mm
- Swelling Inc. % ([7]; IP 10 × 5 mg/kg): 14%
- Swelling (R -L) ([7]; IP 10 × 5 mg/kg): 19.8 +/- 1.9 × 0.01 mm
- ear thickness, Left Ear (No Oxa.) ([7]; IP 10 × 5 mg/kg): 20.2 +/- 0.4 × 0.01 mm
- ear thickness, Right Ear (24 hrs Oxa.) ([7]; IP 10 × 5 mg/kg): 40.0 +/- 1.6 × 0.01 mm
- Swelling Inc. % ([7]; IP 100 × 5 mg/kg): -37%
- died on Day 2 ([7]; IP 100 × 5 mg/kg): 1/5
- Swelling (R -L) ([7]; IP 100 × 5 mg/kg): 11.0 +/- 1.1 × 0.01 mm
- ear thickness, Left Ear (No Oxa.) ([7]; IP 100 × 5 mg/kg): 21.3 +/- 1.0 × 0.01 mm
- ear thickness, Right Ear (24 hrs Oxa.) ([7]; IP 100 × 5 mg/kg): 32.3 +/- 2.0 × 0.01 mm
- Minimum inhibitory concentration (MIC) (Escherichia coli): > 0.5%
- curative effects in comparison with corticosteroids (Psoriasis; 1% concentration): long-lasting curative effects
- remission of the treated area (Psoriasis; 1% concentration, some patients): still in remission of the treated area after three years
- appearance of relapses (Psoriasis; 10 months after treatment, versus local corticosteroid): significantly delayed
- results on psoriatic lesions (Psoriasis; cream, 2 times a day for 21 days, follow up 3, 6 and 9 months): good results
- time to curative effect versus local corticosteroid (Psoriasis; in most cases): sooner or in the same period of time it took local corticosteroid
- relapses (Psoriasis; some patients, 10 months following the treatment, larger surfaces, occlusions): no relapses were observed even after 10 months
- antiviral activity (semliki forest virus): no activity
- cure (seborhoic dermatitis): completely cured
